Test results reported in patent US20250296971A1, “GASTRIC INHIBITORY PEPTIDE RECEPTOR LIGANDS” (priority 2021, published 2025).
*1 amine or outer side, *2 acyl side, *3 side chain or, on linkers, in order; H or OH if unused. Where a SMILES comes first, the peptide text is derived from it. Bridges are numbered along the chain shown (N, C = ends). [ ]: non-standard residue; d: D form. The star is where a group is joined. TBMB(SCH2CH2NH-DOTA) = O=C(O)CN1CCN(CC(=O)O)CCN(CC(=O)NCCSCc2cc(C[*:1])cc(C[*:2])c2)CCN(CC(=O)O)CC1; X5 = NC(=O)[C@H](CCCCNC(=O)CN1CCN(CC(=O)O)CCN(CC(=O)O)CCN(CC(=O)O)CC1)NC(=O)CCC(=O)NCCCOCCOCCOCCCN*; X19 = O=C(O)CN1CCN(CC(=O)O)CCN(CC(=O)N2CCN(Cc3cc(C[*:1])cc(C[*:2])c3)CC2)CCN(CC(=O)O)CC1; X3 = O=C(O)CN1CCN(CC(=O)O)CCN(CC(=O)NCCCOCCOCCOCCCN*)CCN(CC(=O)O)CC1; DOTA = O=C(O)CN1CCN(CC(=O)O)CCN(CC(=O)*)CCN(CC(=O)O)CC1; Propanoyl(3-(1-naphthyl)) = O=C(CCc1cccc2ccccc12)*; Trp(5-Cl) = N[C@@H](Cc1c[nH]c2ccc(Cl)cc12)C(=O)O; Trp(6-Cl) = N[C@@H](Cc1c[nH]c2cc(Cl)ccc12)C(=O)O; Trp(6-F) = N[C@@H](Cc1c[nH]c2cc(F)ccc12)C(=O)O; Propanoyl(3-(4-Cl-Ph)) = O=C(CCc1ccc(Cl)cc1)*; NMeW = CN[C@@H](Cc1c[nH]c2ccccc12)C(=O)O; mXylylene = c1cc(C[*:1])cc(C[*:2])c1; X6 = c1cc(CSCCN[*:2])nc(C[*:1])c1; X7 = c1cc(CSCCN[*:2])cc(C[*:1])c1; Hyp = O=C(O)[C@@H]1C[C@@H](O)CN1; X1 = O=C(CN1CCC(N[*:1])CC1)[*:2]; Cha = N[C@@H](CC1CCCCC1)C(=O)O; Suc = O=C(CCC(=O)[*:2])[*:1]; X28 = O=C(CCc1ccc2ccccc2c1)*; Thp = NC1(C(=O)O)CCOCC1; Aib = CC(C)(N)C(=O)O

These molecules were tested against T1, GIPR (CHO-K1-hGIPR cells) (Homo sapiens, UniProt P48546) (assay: FACS binding assay). Conditions: competition with 20 nM GIP-057, 4° C. for 1 hour, read-out: pIC50 Category (converted).
T1 construct: host or cells: CHO-K1
T1 sequence (P48546 22-466): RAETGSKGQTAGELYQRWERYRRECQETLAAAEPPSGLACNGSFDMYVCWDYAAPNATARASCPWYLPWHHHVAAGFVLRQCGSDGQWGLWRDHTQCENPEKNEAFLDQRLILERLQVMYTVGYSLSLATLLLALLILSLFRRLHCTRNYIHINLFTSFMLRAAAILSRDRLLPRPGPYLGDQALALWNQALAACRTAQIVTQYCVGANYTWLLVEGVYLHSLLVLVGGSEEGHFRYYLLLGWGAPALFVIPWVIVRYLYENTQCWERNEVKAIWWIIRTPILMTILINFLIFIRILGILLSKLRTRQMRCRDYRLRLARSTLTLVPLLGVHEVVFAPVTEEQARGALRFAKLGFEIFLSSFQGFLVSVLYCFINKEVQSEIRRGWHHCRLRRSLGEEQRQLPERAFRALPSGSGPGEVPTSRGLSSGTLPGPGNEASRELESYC
Outline: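 Read-out: flow cytometric median fluorescence intensity, APC/Cy5 channel, plotted vs peptide conc.; 4PL fit → EC50/pEC50 or IC50/pIC50. Cells: CHO-K1-hGIPR, Accutase-detached, 500.000/mL in PBS + 1% FCS. Detection: APC-streptavidin 1 μg/mL, 30 min, on ice.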

Row | Compound | IC50
1 | CC(=O)N[C@@H](CC(=O)O)C(=O)N[C@@H](Cc1c[nH]c2ccccc12)C(=O)N[C@@H](Cc1c[nH]c2ccccc12)C(=O)N1CCC[C@H]1C(=O)N[C@@H](CCC(=O)O)C(=O)N[C@@H](CC(C)C)C(=O)N[C@H]1CSCc2cccc(c2)CSC[C@@H](C(=O)NCCCOCCOCCOCCCNC(=O)CCC(=O)N[C@@H](CCCCNC(=O)CN2CCN(CC(=O)O)CCN(CC(=O)O)CCN(CC(=O)O)CC2)C(N)=O)NC(=O)[C@H](CC2CCCCC2)NC(=O)[C@H](CC(C)C)NC(=O)C(C)(C)NC1=O [GIP-278, Ac-Asp-Trp-Trp-Pro-Glu-Leu-[Cys(3MeBn)-Aib-Leu-Cha-Cys]-Ttds-Lys(DOTA)-NH2] (Ac-DWWPELC[Aib]L[Cha]C-X5; linker 7-11 via mXylylene) | 100 to 794 nM
2 | CC[C@H](C)[C@@H]1NC(=O)[C@H](CC(C)C)NC(=O)C(C)(C)NC(=O)[C@@H](NC(=O)[C@@H](CC(C)C)NC(=O)[C@H](CCC(=O)O)NC(=O)[C@@H]2CCCN2C(=O)[C@H](Cc2c[nH]c3ccccc23)NC(=O)[C@H](Cc2c[nH]c3ccccc23)NC(=O)[C@H](CC(=O)O)NC(=O)CCc2ccc(Cl)cc2)CSCc2cccc(c2)CSC[C@@H](C(=O)NCCCOCCOCCOCCCNC(=O)CCC(=O)N[C@@H](CCCCNC(=O)CN2CCN(CC(=O)O)CCN(CC(=O)O)CCN(CC(=O)O)CC2)C(N)=O)NC1=O [GIP-279, 4ClPhp-Asp-Trp-Trp-Pro-Glu-leu-[Cys(3MeBn)-Aib-Leu-Ile-Cys]-Ttds-Lys(DOTA)-NH2] ({Propanoyl(3-(4-Cl-Ph))}-DWWPE[dL]C[Aib]LIC-X5; linker 7-11 via mXylylene) | 100 to 794 nM
3 | CC[C@H](C)[C@@H]1NC(=O)[C@H](CC(C)C)NC(=O)C(C)(C)NC(=O)[C@@H](NC(=O)[C@@H](CC(C)C)NC(=O)[C@H](CCC(=O)O)NC(=O)[C@@H]2CCCN2C(=O)[C@H](Cc2c[nH]c3ccccc23)NC(=O)[C@H](Cc2c[nH]c3ccccc23)NC(=O)[C@H](CC(=O)O)NC(=O)CCc2cccc3ccccc23)CSCc2cccc(c2)CSC[C@@H](C(=O)NCCCOCCOCCOCCCNC(=O)CCC(=O)N[C@@H](CCCCNC(=O)CN2CCN(CC(=O)O)CCN(CC(=O)O)CCN(CC(=O)O)CC2)C(N)=O)NC1=O [GIP-280, Nph1p-Asp-Trp-Trp-Pro-Glu-leu-[Cys(3MeBn)-Aib-Leu-Ile-Cys]-Ttds-Lys(DOTA)-NH2] ({Propanoyl(3-(1-naphthyl))}-DWWPE[dL]C[Aib]LIC-X5; linker 7-11 via mXylylene) | 100 to 794 nM
4 | CC[C@H](C)[C@@H]1NC(=O)[C@H](CC(C)C)NC(=O)C(C)(C)NC(=O)[C@@H](NC(=O)[C@@H](CC(C)C)NC(=O)[C@H](CCC(=O)O)NC(=O)[C@@H]2CCCN2C(=O)[C@H](Cc2c[nH]c3ccccc23)NC(=O)[C@H](Cc2c[nH]c3ccccc23)NC(=O)[C@H](CC(=O)O)NC(=O)CCc2ccc3ccccc3c2)CSCc2cccc(c2)CSC[C@@H](C(=O)NCCCOCCOCCOCCCNC(=O)CCC(=O)N[C@@H](CCCCNC(=O)CN2CCN(CC(=O)O)CCN(CC(=O)O)CCN(CC(=O)O)CC2)C(N)=O)NC1=O [GIP-281, Nph2p-Asp-Trp-Trp-Pro-Glu-leu-[Cys(3MeBn)-Aib-Leu-Ile-Cys]-Ttds-Lys(DOTA)-NH2] (X28-DWWPE[dL]C[Aib]LIC-X5; linker 7-11 via mXylylene) | 100 to 794 nM
5 | CC[C@H](C)[C@@H]1NC(=O)[C@H](CC(C)C)NC(=O)C(C)(C)NC(=O)[C@@H](NC(=O)[C@@H](CC(C)C)NC(=O)[C@H](CCC(=O)O)NC(=O)[C@@H]2CCCN2C(=O)[C@H](Cc2c[nH]c3cc(Cl)ccc23)NC(=O)[C@H](Cc2c[nH]c3ccccc23)NC(=O)[C@H](CC(=O)O)NC(C)=O)CSCc2cccc(c2)CSC[C@@H](C(=O)NCCCOCCOCCOCCCNC(=O)CCC(=O)N[C@@H](CCCCNC(=O)CN2CCN(CC(=O)O)CCN(CC(=O)O)CCN(CC(=O)O)CC2)C(N)=O)NC1=O [GIP-282, Ac-Asp-Trp-6Clw-Pro-Glu-leu-[Cys(3MeBn)-Aib-Leu-Ile-Cys]-Ttds-Lys(DOTA)-NH2] (Ac-DW[Trp(6-Cl)]PE[dL]C[Aib]LIC-X5; linker 7-11 via mXylylene) | 100 to 794 nM
6 | CC[C@H](C)[C@@H]1NC(=O)[C@H](CC(C)C)NC(=O)C(C)(C)NC(=O)[C@@H](NC(=O)[C@@H](CC(C)C)NC(=O)[C@H](CCC(=O)O)NC(=O)[C@@H]2CCCN2C(=O)[C@H](Cc2c[nH]c3ccccc23)NC(=O)[C@H](Cc2c[nH]c3cc(F)ccc23)NC(=O)[C@H](CC(=O)O)NC(=O)CCC(=O)NCCCOCCOCCOCCCNC(=O)CN2CCN(CC(=O)O)CCN(CC(=O)O)CCN(CC(=O)O)CC2)CSCc2cccc(c2)CSCCNC1=O [GIP-283, DOTA-Ttds-Asp-6Fw-Trp-Pro-Glu-leu-[Cys(3MeBn)-Aib-Leu-Ile-AET]] ({X3-Suc}-D[Trp(6-F)]WPE[dL]C[Aib]LI; linker 7-C via X7) | 100 to 794 nM

Further lines, results first:

Row | IC50 | Compound
7 | 100 to 794 nM | CC[C@H](C)[C@@H]1NC(=O)[C@H](CC(C)C)NC(=O)C2(CCOCC2)NC(=O)[C@@H](NC(=O)[C@@H](CC(C)C)NC(=O)[C@H](CCC(=O)O)NC(=O)[C@@H]2C[C@@H](O)CN2C(=O)[C@H](Cc2c[nH]c3ccc(Cl)cc23)NC(=O)CNC(=O)[C@H](CC(=O)O)NC(=O)CN2CCC(NC(=O)CN3CCN(CC(=O)O)CCN(CC(=O)O)CCN(CC(=O)O)CC3)CC2)CSCc2cccc(n2)CSCCNC1=O [GIP-284, DOTA-APAc-Asp-Gly-5Clw-Hyp-Glu-leu-[Cys(2Lut)-Thp-Leu-Ile-AET]] ({DOTA}-[X1]DG[Trp(5-Cl)][Hyp]E[dL]C[Thp]LI; linker 8-C via X6)
8 | > 1000 nM | CC[C@H](C)[C@@H]1NC(=O)[C@H](CC(C)C)NC(=O)[C@@H](C)NC(=O)[C@@H](NC(=O)[C@@H](CC(C)C)NC(=O)[C@H](CCC(=O)O)NC(=O)[C@@H]2CCCN2C(=O)[C@H](Cc2c[nH]c3ccccc23)NC(=O)[C@H](Cc2c[nH]c3ccccc23)NC(=O)[C@H](CC(=O)O)NC(=O)CCC(=O)NCCCOCCOCCOCCCNC(=O)CN2CCN(CC(=O)O)CCN(CC(=O)O)CCN(CC(=O)O)CC2)CSCc2cccc(c2)CSC[C@@H](C(=O)O)NC1=O [GIP-285, DOTA-Ttds-Asp-Trp-Trp-Pro-Glu-leu-[Cys(3MeBn)-ala-Leu-Ile-Cys]-OH] ({X3-Suc}-DWWPE[dL]C[dA]LIC-OH; linker 7-11 via mXylylene)
9 | > 1000 nM | CC[C@H](C)[C@@H]1NC(=O)[C@H](CC(C)C)NC(=O)[C@@H](C)NC(=O)[C@@H](NC(=O)[C@@H](CC(C)C)NC(=O)[C@H](CCC(=O)O)NC(=O)[C@@H]2CCCN2C(=O)[C@H](Cc2c[nH]c3ccccc23)NC(=O)[C@H](Cc2c[nH]c3ccccc23)NC(=O)CCC(=O)O)CSCc2cc(cc(CN3CCN(C(=O)CN4CCN(CC(=O)O)CCN(CC(=O)O)CCN(CC(=O)O)CC4)CC3)c2)CSC[C@@H](C(N)=O)NC1=O [GIP-286, HO-Succinyl-Trp-Trp-Pro-Glu-leu-[Cys(tMeBn(DOTA-PP))-ala-Leu-Ile-Cys]-NH2] (Suc-WWPE[dL]C[dA]LIC-NH2; linker 6-10 via X19)
10 | > 1000 nM | CC[C@H](C)[C@@H]1NC(=O)[C@H](CC(C)C)NC(=O)[C@@H](C)NC(=O)[C@@H](NC(=O)[C@@H](CC(C)C)NC(=O)[C@H](CCC(=O)O)NC(=O)[C@@H]2CCCN2C(=O)[C@H](Cc2c[nH]c3ccccc23)NC(=O)[C@H](Cc2c[nH]c3ccccc23)NC(=O)CCC(=O)O)CSCc2cc(CSCCNC(=O)CN3CCN(CC(=O)O)CCN(CC(=O)O)CCN(CC(=O)O)CC3)cc(c2)CSC[C@@H](C(N)=O)NC1=O [GIP-287, HO-Succinyl-Trp-Trp-Pro-Glu-leu-[Cys(tMeBn(DOTA-AET))-ala-Leu-Ile-Cys]-NH2] (Suc-WWPE[dL]C[dA]LIC-NH2; linker 6-10 via TBMB(SCH2CH2NH-DOTA))
11 | > 1000 nM | CC[C@H](C)[C@@H]1NC(=O)[C@H](CC(C)C)NC(=O)[C@@H](C)NC(=O)[C@@H](NC(=O)[C@@H](CC(C)C)NC(=O)[C@H](CCC(=O)O)NC(=O)[C@@H]2CCCN2C(=O)[C@H](Cc2c[nH]c3ccccc23)NC(=O)[C@H](Cc2c[nH]c3ccccc23)NC(=O)CCC(=O)O)CSCc2cccc(c2)CSC[C@@H](C(=O)NCCCOCCOCCOCCCNC(=O)CCC(=O)N[C@@H](CCCCNC(=O)CN2CCN(CC(=O)O)CCN(CC(=O)O)CCN(CC(=O)O)CC2)C(N)=O)NC1=O [GIP-288, HO-Succinyl-Trp-Trp-Pro-Glu-leu-[Cys(3MeBn)-ala-Leu-Ile-Cys]-Ttds-Lys(DOTA)-NH2] (Suc-WWPE[dL]C[dA]LIC-X5; linker 6-10 via mXylylene)
12 | > 1000 nM | CC[C@H](C)[C@@H]1NC(=O)[C@H](CC(C)C)NC(=O)C(C)(C)NC(=O)[C@@H](NC(=O)[C@H](CC(C)C)NC(=O)[C@H](CCC(=O)O)NC(=O)[C@@H]2CCCN2C(=O)[C@H](Cc2c[nH]c3ccccc23)N(C)C(=O)[C@H](Cc2c[nH]c3ccccc23)NC(=O)[C@H](CC(=O)O)NC(C)=O)CSCc2cccc(c2)CSC[C@@H](C(=O)NCCCOCCOCCOCCCNC(=O)CCC(=O)N[C@@H](CCCCNC(=O)CN2CCN(CC(=O)O)CCN(CC(=O)O)CCN(CC(=O)O)CC2)C(N)=O)NC1=O [GIP-289, Ac-Asp-Trp-Nmw-Pro-Glu-Leu-[Cys(3MeBn)-Aib-Leu-Ile-Cys]-Ttds-Lys(DOTA)-NH2] (Ac-DW[NMeW]PELC[Aib]LIC-X5; linker 7-11 via mXylylene)
